Reference: PubChem BioAssay AID330 (DTP/NCI, 2004)
Where “and” joins values, the source holds several entries; their conditions need not be identical. Identical values can stand only once. Inconclusive results and toxic doses are left out.

System: P388 leukemia ip, CD2F1 mice, survival T/C
Assay: NCI In Vivo Anticancer Drug Screen. Data for tumor model P388 Leukemia (intraperitoneal) in CD2F1 (CDF1) mice
Settings: endpoint: median survival time, higher = longer survival
Outline: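 Mice carrying the transplanted tumor received test compound or vehicle. Survival was recorded in each group, and the value is the treated-group measurement divided by that of the vehicle-treated control group.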

[1] = dose: 50.0 mg/kg/injection, schedule: Q01DX009 (ip), vehicle: Klucel (hydroxypropylcellulose) (HPC)
[2] = dose: 100.0 mg/kg/injection, schedule: Q01DX009 (ip), vehicle: Klucel (hydroxypropylcellulose) (HPC)
[3] = dose: 200.0 mg/kg/injection, schedule: Q01DX009 (ip), vehicle: Klucel (hydroxypropylcellulose) (HPC)
[4] = dose: 50.0 mg/kg/injection, schedule: Q01DX005 (ip), vehicle: Klucel (hydroxypropylcellulose) (HPC)
[5] = dose: 100.0 mg/kg/injection, schedule: Q01DX005 (ip), vehicle: Klucel (hydroxypropylcellulose) (HPC)
[6] = dose: 100.0 mg/kg/injection, schedule: Q04DX002 (ip), vehicle: saline with Tween-80
[7] = dose: 200.0 mg/kg/injection, schedule: Q04DX002 (ip), vehicle: saline with Tween-80
[8] = dose: 400.0 mg/kg/injection, schedule: Q04DX002 (ip), vehicle: saline with Tween-80
[9] = dose: 60.0 mg/kg/injection, schedule: Q01DX005 (ip), vehicle: saline with Tween-80
[10] = dose: 120.0 mg/kg/injection, schedule: Q01DX005 (ip), vehicle: saline with Tween-80
[11] = dose: 240.0 mg/kg/injection, schedule: Q01DX005 (ip), vehicle: saline with Tween-80
[12] = dose: 25.0 mg/kg/injection, schedule: Q01DX009 (ip), vehicle: saline with Tween-80
[13] = dose: 50.0 mg/kg/injection, schedule: Q01DX009 (ip), vehicle: saline with Tween-80
[14] = dose: 100.0 mg/kg/injection, schedule: Q01DX009 (ip), vehicle: saline with Tween-80
[15] = dose: 200.0 mg/kg/injection, schedule: Q01DX009 (ip), vehicle: saline with Tween-80
[16] = dose: 60.0 mg/kg/injection, schedule: Q01DX005 (ip), vehicle: Klucel (hydroxypropylcellulose) (HPC)
[17] = dose: 120.0 mg/kg/injection, schedule: Q01DX005 (ip), vehicle: Klucel (hydroxypropylcellulose) (HPC)
[18] = dose: 240.0 mg/kg/injection, schedule: Q01DX005 (ip), vehicle: Klucel (hydroxypropylcellulose) (HPC)
[19] = dose: 50.0 mg/kg/injection, schedule: Q01DX005 (ip), vehicle: saline with Tween-80
[20] = dose: 100.0 mg/kg/injection, schedule: Q01DX005 (ip), vehicle: saline with Tween-80
[21] = dose: 200.0 mg/kg/injection, schedule: Q01DX005 (ip), vehicle: saline with Tween-80
[22] = dose: 100.0 mg/kg/injection, schedule: Q04DX003 (ip), vehicle: saline with Tween-80
[23] = dose: 200.0 mg/kg/injection, schedule: Q04DX003 (ip), vehicle: saline with Tween-80
[24] = dose: 6.25 mg/kg/injection, schedule: Q01DX009 (ip), vehicle: Klucel (hydroxypropylcellulose) (HPC)
[25] = dose: 12.5 mg/kg/injection, schedule: Q01DX009 (ip), vehicle: Klucel (hydroxypropylcellulose) (HPC)
[26] = dose: 25.0 mg/kg/injection, schedule: Q01DX009 (ip), vehicle: Klucel (hydroxypropylcellulose) (HPC)
[27] = dose: 50.0 mg/kg/injection, schedule: Q01DX009 (ip), vehicle: saline
[28] = dose: 100.0 mg/kg/injection, schedule: Q01DX009 (ip), vehicle: saline

S=c1[nH]ccc2ccccc12
T/C [1]: 100 % of control
T/C [2]: 101 % of control
T/C [3]: 119 % of control
T/C (dose: 400.0 mg/kg/injection, schedule: Q01DX009 (ip), vehicle: Klucel (hydroxypropylcellulose) (HPC)): 105 % of control

COc1ccc(Cc2cc3c(cc2OCC(=O)N2CCOCC2)OCO3)cc1
T/C [4]: 97 % of control
T/C [5]: 89 % of control
T/C (dose: 200.0 mg/kg/injection, schedule: Q01DX005 (ip), vehicle: Klucel (hydroxypropylcellulose) (HPC)): 97 % of control

CC(C)=CCC(OC(=O)C=C(C)C)c1cc(O)c2c(O)ccc(O)c2c1O.[Ni] (centres undefined)
T/C [6]: 111 % of control
T/C [7]: 105 % of control
T/C [8]: 114 % of control

CCn1cc(C(=O)O)c(=O)c2nc(N3CCOCC3)sc21
T/C [9]: 106 % of control
T/C [10]: 95 % of control
T/C [11]: 98 % of control

Cn1c(=O)c2c(nc3n2CC(CF)O3)n(C)c1=O (centres undefined)
T/C [1]: 104 % of control
T/C [2]: 104 % of control
T/C [3]: 99 % of control

COC(=O)c1nc2c(n(C)/c1=N/C(=O)Nc1ccccc1)CCCC2
T/C [12]: 120 % of control
T/C [13]: 124 % of control
T/C [14]: 216 % of control
T/C [15]: 117 % of control

COC(=O)C1(C(=O)OC)OC(c2ccc(OC)cc2)[C@H]2C(=O)N(C)C(=O)[C@H]21 (some centres undefined)
T/C [16]: 92 % of control
T/C [17]: 92 % of control
T/C [18]: 89 % of control

CCN(CC)c1ccc(/C=N/Nc2cc(C)nc3ccc(C4CCCCC4)cc23)cc1
T/C [19]: 90 % of control
T/C [20]: 100 % of control
T/C [21]: 118 % of control

CCOC(=O)c1cn(CC)c2c(ccc3cnccc32)c1=O
T/C [16]: 103 % of control
T/C [17]: 100 % of control
T/C [18]: 98 % of control

Nc1nc(N)c(N=Nc2ccccc2)c(=O)[nH]1
T/C [13]: 100 % of control
T/C (dose: 50.0 mg/kg/injection, schedule: Q04DX003 (ip), vehicle: saline with Tween-80): 86 % of control
T/C [14]: 90 % of control
T/C [22]: 95 % of control
T/C [15]: 115 % of control
T/C [23]: 95 % of control

c1ccc2nc3c(nc2c1)[nH]c1ccccc13
T/C [24]: 101 % of control
T/C [25]: 95 % of control
T/C [26]: 103 % of control
T/C [1]: 95 % of control

COC(=O)c1nc(=S)[nH]c(C(=O)OC)c1C(=O)c1ccc([N+](=O)[O-])cc1
T/C [16]: 101 % of control
T/C [17]: 95 % of control
T/C [18]: 91 % of control

Cc1ccc(NC(=O)CCCC(=O)C(C#N)c2nc3ccccc3s2)cc1C (centres undefined)
T/C [9]: 100 % of control
T/C [10]: 98 % of control
T/C [11]: 98 % of control

CC(=O)N=C1C=C(NC(C)=O)C(=O)c2ccccc21
T/C [24]: 103 % of control
T/C [25]: 99 % of control and 100 % of control and 116 % of control
T/C [26]: 100 % of control and 105 % of control and 124 % of control
T/C [1]: 112 % of control

CC12CCCN(CCCl)C1CCC1C2CCC2(C)C1CCCN2CCCl (centres undefined)
T/C (dose: 0.78 mg/kg/injection, schedule: Q01DX001 (ip), vehicle: saline with Tween-80): 108 % of control
T/C (dose: 1.56 mg/kg/injection, schedule: Q01DX001 (ip), vehicle: saline with Tween-80): 112 % of control and 118 % of control
T/C (dose: 1.56 mg/kg/injection, schedule: Q01DX001 (ip), vehicle: saline): 102 % of control
T/C (dose: 3.13 mg/kg/injection, schedule: Q01DX001 (ip), vehicle: saline with Tween-80): 117 % of control

O=CNCNC=O
T/C [27]: 95 % of control
T/C [28]: 90 % of control
T/C (dose: 200.0 mg/kg/injection, schedule: Q01DX009 (ip), vehicle: saline): 99 % of control

CN(C)c1ccc(C(c2cc3c(cc2O)OCO3)N2CCN(C(c3ccc(N(C)C)cc3)c3cc4c(cc3O)OCO4)CC2)cc1 (centres undefined)
T/C (dose: 60.0 mg/kg/injection, schedule: Q01DX005 (ip), vehicle: saline): 96 % of control
T/C (dose: 120.0 mg/kg/injection, schedule: Q01DX005 (ip), vehicle: saline): 100 % of control
T/C (dose: 240.0 mg/kg/injection, schedule: Q01DX005 (ip), vehicle: saline): 99 % of control

Brc1cccc(C(Nc2nncs2)Nc2nncs2)c1
T/C (dose: 50.0 mg/kg/injection, schedule: Q04DX002 (ip), vehicle: saline with Tween-80): 91 % of control
T/C [6]: 92 % of control and 95 % of control
T/C [7]: 100 % of control and 111 % of control
T/C [8]: 124 % of control

CCCSCC(C)C
T/C [13]: 100 % of control
T/C [14]: 100 % of control
T/C [15]: 109 % of control

NC(=S)N/N=C\Cn1cc([N+](=O)[O-])c(=O)[nH]c1=O
T/C [4]: 101 % of control
T/C [5]: 87 % of control

CCCCC([Se])=Nc1ccc(Br)cc1
T/C [24]: 106 % of control
T/C [25]: 104 % of control
T/C [26]: 104 % of control

CCCCCCC(O)CCCCCCCCCCC(N)=O (centres undefined)
T/C (dose: 6.25 mg/kg/injection, schedule: Q01DX005 (ip), vehicle: Klucel (hydroxypropylcellulose) (HPC)): 99 % of control
T/C (dose: 12.5 mg/kg/injection, schedule: Q01DX005 (ip), vehicle: Klucel (hydroxypropylcellulose) (HPC)): 96 % of control
T/C (dose: 25.0 mg/kg/injection, schedule: Q01DX005 (ip), vehicle: Klucel (hydroxypropylcellulose) (HPC)): 94 % of control

CC(=O)c1cc(C)oc1C
T/C (dose: 25.0 mg/kg/injection, schedule: Q01DX009 (ip), vehicle: saline): 100 % of control
T/C [27]: 100 % of control and 111 % of control and 112 % of control
T/C [28]: 109 % of control and 111 % of control and 112 % of control
T/C (dose: 400.0 mg/kg/injection, schedule: Q01DX009 (ip), vehicle: saline): 116 % of control

O=C1NC(=O)C2(Cc3cccc4cccc2c34)N1 (centres undefined)
T/C [19]: 103 % of control
T/C [20]: 100 % of control
T/C [21]: 99 % of control

Cn1c(=O)[nH]c(=O)c2nc(-c3ccc(Cl)c(Cl)c3)cnc21
T/C [13]: 104 % of control
T/C [14]: 101 % of control
T/C [15]: 99 % of control

[O-][n+]1c2ccccc2[n+]([O-])c2c3ccccc3[nH]c21
T/C [19]: 95 % of control
T/C [20]: 95 % of control
T/C [21]: 88 % of control

COc1ccc(NC(=O)C(c2ccccc2)c2ccccc2)cc1
T/C [22]: 90 % of control
T/C [23]: 95 % of control
T/C (dose: 400.0 mg/kg/injection, schedule: Q04DX003 (ip), vehicle: saline with Tween-80): 100 % of control

CN(/N=C/c1ccc(Cl)cc1)P(=O)(N1CC1)N1CC1
T/C (dose: 6.25 mg/kg/injection, schedule: Q01DX005 (ip), vehicle: saline with Tween-80): 116 % of control
T/C (dose: 12.5 mg/kg/injection, schedule: Q01DX005 (ip), vehicle: saline with Tween-80): 116 % of control
T/C [19]: 171 % of control

N/C(=N\O)N(c1ccccc1)c1ccccc1
T/C [12]: 97 % of control
T/C [13]: 98 % of control
T/C [14]: 99 % of control

O=c1[nH]c2c([N+](=O)[O-])cc(Cl)cc2nc1/C=C(\O)c1ccccn1
T/C [16]: 101 % of control
T/C [17]: 99 % of control
T/C [18]: 98 % of control

COc1ccc(S(=O)(=O)N/N=C\c2cc([N+](=O)[O-])ccc2O)c(OC)c1OC
T/C [19]: 107 % of control
T/C [20]: 101 % of control
T/C [21]: 94 % of control

CC1=C(CC/C(C)=C/CC[C@@]2(C)CC[C@H](C(C)C(=O)O)OO2)C(C)(C)CCC1 (some centres undefined)
T/C (dose: 4.38 mg/kg/injection, schedule: Q01DX005 (ip), vehicle: saline + Tween-80 + alcohol): 97 % of control
T/C (dose: 8.75 mg/kg/injection, schedule: Q01DX005 (ip), vehicle: saline + Tween-80 + alcohol): 102 % of control
T/C (dose: 17.5 mg/kg/injection, schedule: Q01DX005 (ip), vehicle: saline + Tween-80 + alcohol): 94 % of control
T/C (dose: 35.0 mg/kg/injection, schedule: Q01DX005 (ip), vehicle: saline + Tween-80 + alcohol): 94 % of control

O=c1c(C(=Nc2ccccc2)c2ccccc2)c[nH]n1-c1ccccc1
T/C [9]: 105 % of control
T/C [10]: 105 % of control
T/C [11]: 105 % of control
